Source: patent US10253000B2, “Pyridazin-3(2H)-one derivatives as monoamine oxidase selective isoform B inhibitors” (UNIVERSIDADE DE VIGO, priority 2014, dated 2019)
Like-named read-outs stand apart in the source and are kept apart here. Marks after values point to notes of the source that are not given here.

How the values were obtained:
human recombinant MAO-B = target: T1, human recombinant MAO-B (Homo sapiens, UniProt P27338); test: Determination of MAO isoforms activity (Amplex Red, p-tyramine), MAO-B; type: biochemical; details: for IC50: read-out: IC50 hMAO-B; for S.I. Selectivity index hMAO-B = IC50 (hMAO-A)/IC50 (hMAO-B): bounds calculated taking the highest concentration studied (100 μM or 1 mM) as IC50
T1 construct: purchased Sigma-Aldrich Química S.A., Alcobendas, Spain; host or cells: insect cells (BTI-TN-5B1-4) infected with recombinant baculovirus
T1 sequence (P27338 1-520): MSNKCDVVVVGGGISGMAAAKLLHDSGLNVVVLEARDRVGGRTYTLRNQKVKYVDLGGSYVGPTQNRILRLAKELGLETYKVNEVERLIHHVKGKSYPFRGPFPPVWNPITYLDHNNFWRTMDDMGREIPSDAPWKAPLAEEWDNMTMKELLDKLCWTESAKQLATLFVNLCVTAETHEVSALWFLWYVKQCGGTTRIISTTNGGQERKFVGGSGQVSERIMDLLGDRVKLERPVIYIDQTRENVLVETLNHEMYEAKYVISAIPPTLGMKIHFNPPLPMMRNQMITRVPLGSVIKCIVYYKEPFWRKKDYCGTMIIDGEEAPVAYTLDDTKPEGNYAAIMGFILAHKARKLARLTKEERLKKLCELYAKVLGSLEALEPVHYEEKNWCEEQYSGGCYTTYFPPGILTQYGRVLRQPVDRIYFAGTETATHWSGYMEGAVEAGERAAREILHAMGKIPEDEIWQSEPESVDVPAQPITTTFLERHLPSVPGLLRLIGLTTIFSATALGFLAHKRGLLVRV

human recombinant MAO-A = target: T2, human recombinant MAO-A (Homo sapiens, UniProt P21397); test: Determination of MAO isoforms activity (Amplex Red, p-tyramine), MAO-A; type: biochemical; details: read-out: IC50 hMAO-A
T2 construct: purchased Sigma-Aldrich Química S.A., Alcobendas, Spain; host or cells: insect cells (BTI-TN-5B1-4) infected with recombinant baculovirus
T2 sequence (P21397 1-527): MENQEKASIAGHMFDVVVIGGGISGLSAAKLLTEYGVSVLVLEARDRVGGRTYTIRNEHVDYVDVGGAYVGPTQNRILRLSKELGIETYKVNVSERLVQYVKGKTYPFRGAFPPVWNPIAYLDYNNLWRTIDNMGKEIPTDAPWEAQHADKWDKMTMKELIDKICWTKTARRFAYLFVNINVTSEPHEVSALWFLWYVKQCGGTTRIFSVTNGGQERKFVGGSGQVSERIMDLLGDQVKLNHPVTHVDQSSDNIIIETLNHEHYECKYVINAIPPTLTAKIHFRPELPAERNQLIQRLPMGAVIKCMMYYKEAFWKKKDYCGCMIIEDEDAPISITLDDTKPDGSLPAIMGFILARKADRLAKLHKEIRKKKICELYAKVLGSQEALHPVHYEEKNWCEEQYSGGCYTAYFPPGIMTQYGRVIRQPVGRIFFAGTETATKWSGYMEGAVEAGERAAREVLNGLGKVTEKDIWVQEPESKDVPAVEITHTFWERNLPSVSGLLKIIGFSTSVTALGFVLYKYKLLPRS

[1] = human recombinant MAO-B, p-tyramine 1 mM, mean ± spread of 5 experiments

IC50 (human recombinant MAO-B) [µM]	IC50 (human recombinant MAO-A) [µM]	S.I. Selectivity index hMAO-B = IC50 (hMAO-A)/IC50 (hMAO-B) (human recombinant MAO-B)	IC50 (human recombinant MAO-B; [1]) [µM]	Structure (SMILES)
> 1000	> 100			Cc1cc(=O)n(C)nc1CSC(=S)N1CCCC1 [Id3, 1,4-dimethyl-6-oxo-1,6-dihydropyridazin-3-ylmethyl Pyrrolidin-1-ylcarbodithioate]
	> 100	>1.5^b	66.5 ± 4.43	Cn1nc(CCCSC(=S)N2CCCC2)ccc1=O [Ia25, 3-(1-methyl-6-oxo-1,6-dihydropyridazin-3-yl)propyl Pyrrolidin-1-ylcarbodithioate]
	> 100			O=c1cc(CSC(=S)N2CCOCC2)cnn1Cc1ccccc1 [IIc5, 1-benzyl-6-oxo-1,6-dihydropyridazin-4-ylmethyl Morpholin-4-ylcarbodithioate]
		2.6	38.6 ± 1.74	Cc1cc(=O)n(C)nc1CSC(=S)N1CCOCC1 [Id5, 1,4-dimethyl-6-oxo-1,6-dihydropyridazin-3-ylmethyl morpholin-4-ylcarbodithioate]
	> 100	>15^b	6.71 ± 0.45	O=c1cc(CSC(=S)N2CCCCC2)cnn1Cc1ccccc1 [IIc4, 1-benzyl-6-oxo-1,6-dihydropyridazin-4-ylmethyl Piperidin-1-ylcarbodithioate]
	> 100	>2.3^b	44.2 ± 2.95	CCN(CC)C(=S)SCc1cnn(Cc2ccccc2)c(=O)c1 [IIc2, 1-benzyl-6-oxo-1,6-dihydropyridazin-4-ylmethyl N,N-diethyldithiocarbamate]
	> 100	>4.2^b	24.1 ± 1.6	O=c1c(CSC(=S)N2CCOCC2)ccnn1Cc1ccccc1 [IIIc5, 1-benzyl-6-oxo-1,6-dihydropyridazin-5-ylmethyl Morpholin-4-ylcarbodithioate]
> 100	> 100			O=C(c1ccccc1)N1CCN(C(=S)SCc2cnn(Cc3ccccc3)c(=O)c2)CC1 [IIc11, 1-benzyl-6-oxo-1,6-dihydropyridazin-4-ylmethyl 4-benzoylpiperazin-1-ylcarbodithioate]
> 100	> 100			O=C(c1ccccc1)N1CCN(C(=S)SCc2ccnn(Cc3ccccc3)c2=O)CC1 [IIIc11, 1-benzyl-6-oxo-1,6-dihydropyridazin-5-ylmethyl 4-benzoylpiperazin-1-ylcarbodithioate]
		13.4	7.48 ± 0.34	Cc1cc(=O)n(C)nc1CSC(=S)N1CCCCC1 [Id4, 1,4-dimethyl-6-oxo-1,6-dihydropyridazin-3-ylmethyl Piperidin-1-ylcarbodithioate]
		2.2	44.5 ± 2	Cc1cc(=O)n(C)nc1CSC(=S)N1CCN(C(=O)c2ccccc2)CC1 [Id11, 1,4-dimethyl-6-oxo-1,6-dihydropyridazin-3-ylmethyl 4-benzoylpiperazin-1-ylcarbodithioate]
	> 100	>2.9^b	34 ± 2.26	O=c1c(CSC(=S)N2CCCC2)ccnn1Cc1ccccc1 [IIIc3, 1-benzyl-6-oxo-1,6-dihydropyridazin-5-ylmethyl Pyrrolidin-1-ylcarbodithioate]
	> 100	>8.4^b	11.9 ± 0.53	Cn1nc(CCSC(=S)N2CCCCC2)ccc1=O [Ia15, 2-(1-methyl-6-oxo-1,6-dihydropyridazin-3-yl)ethyl Piperidin-1-ylcarbodithioate]
		10.3	9.68 ± 0.65	O=c1cc(CSC(=S)N2CCCC2)cnn1Cc1ccccc1 [IIc3, 1-benzyl-6-oxo-1,6-dihydropyridazin-4-ylmethyl Pyrrolidin-1-ylcarbodithioate]
